Experimental data as given in patent publication US20140243334A1, “SUBSTITUTED HYDOXAMIC ACIDS AND USES THEREOF” (Millennium Pharmaceuticals, Inc., priority 2010, published 2014).

Target: T1, purified human HDAC6 (Homo sapiens, UniProt Q9UBN7)
T1 construct: purchased BPS Bioscience 5006
T1 sequence (Q9UBN7 1-1215): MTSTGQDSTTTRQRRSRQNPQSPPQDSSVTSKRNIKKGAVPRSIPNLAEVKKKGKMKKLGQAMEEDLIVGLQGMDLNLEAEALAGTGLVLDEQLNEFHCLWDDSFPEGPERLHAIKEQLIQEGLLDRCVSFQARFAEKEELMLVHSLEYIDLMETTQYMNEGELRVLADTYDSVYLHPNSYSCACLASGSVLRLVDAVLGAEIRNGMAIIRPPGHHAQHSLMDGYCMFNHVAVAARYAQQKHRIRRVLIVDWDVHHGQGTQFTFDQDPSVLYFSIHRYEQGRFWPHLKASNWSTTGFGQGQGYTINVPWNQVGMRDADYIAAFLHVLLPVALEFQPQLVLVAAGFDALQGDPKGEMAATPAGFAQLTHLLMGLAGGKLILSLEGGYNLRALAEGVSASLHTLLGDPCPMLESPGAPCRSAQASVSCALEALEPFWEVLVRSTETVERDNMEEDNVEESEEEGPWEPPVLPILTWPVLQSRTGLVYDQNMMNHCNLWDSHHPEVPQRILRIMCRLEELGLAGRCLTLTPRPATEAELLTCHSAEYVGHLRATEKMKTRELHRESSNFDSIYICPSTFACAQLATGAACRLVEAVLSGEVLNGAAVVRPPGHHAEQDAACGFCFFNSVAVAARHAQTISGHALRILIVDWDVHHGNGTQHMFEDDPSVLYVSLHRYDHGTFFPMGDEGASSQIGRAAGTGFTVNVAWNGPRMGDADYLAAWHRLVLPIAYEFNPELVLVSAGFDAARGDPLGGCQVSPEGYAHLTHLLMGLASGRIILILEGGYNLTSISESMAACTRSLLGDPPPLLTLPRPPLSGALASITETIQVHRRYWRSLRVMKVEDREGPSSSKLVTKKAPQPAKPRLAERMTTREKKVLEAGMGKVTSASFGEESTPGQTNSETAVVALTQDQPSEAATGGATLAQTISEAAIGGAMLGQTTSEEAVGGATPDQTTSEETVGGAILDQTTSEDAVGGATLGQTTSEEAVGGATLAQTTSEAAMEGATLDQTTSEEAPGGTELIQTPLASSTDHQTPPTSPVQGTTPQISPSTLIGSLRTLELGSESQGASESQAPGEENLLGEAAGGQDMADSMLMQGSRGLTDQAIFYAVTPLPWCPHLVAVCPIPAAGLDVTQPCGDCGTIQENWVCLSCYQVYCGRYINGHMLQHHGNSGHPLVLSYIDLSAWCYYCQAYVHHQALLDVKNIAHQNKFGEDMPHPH
Assay: HDAC6 Enzyme Assay
Type: biochemical
Conditions: HDAC6 inhibition at a compound concentration of 0.412 μM; read-out: Percent Inhibition at 0.412 μM

| inhibition at 0.412 µM [%] | SMILES |
| --- | --- |
| 93 | CS(=O)(=O)Nc1cccc(Oc2ccc3c(c2)CC(C(=O)NO)CC3)c1 (stereo not shown) [Compound I-55, N-hydroxy-7-{3-[(methylsulfonyl)amino]phenoxy}-1,2,3,4-tetrahydronaphthalene-2-carboxamide] |
| 79 | Cc1nnc(-c2cccc(-c3ccc4c(c3)CC(C(=O)NO)CC4)c2)o1 (stereo not shown) [Compound I-88, N-hydroxy-7-[3-(5-methyl-1,3,4-oxadiazol-2-yl)phenyl]-1,2,3,4-tetrahydronaphthalene-2-carboxamide] |
| 82 | O=C(NO)C1CCc2ccc(Oc3ccc(NC(=O)C4CC4)cc3)cc2C1 (stereo not shown) [Compound I-56, 7-{4-[(cyclopropylcarbonyl)amino]phenoxy}-N-hydroxy-1,2,3,4-tetrahydronaphthalene-2-carboxamide] |
| 82 | O=C(NO)C1CCc2ccc(-c3cccc(Cl)c3)cc2C1 (stereo not shown) [Compound I-49, 7-(3-chlorophenyl)-N-hydroxy-1,2,3,4-tetrahydronaphthalene-2-carboxamide] |
| 78 | CN(C)CCOc1cccc(Oc2ccc3c(c2)CC(C(=O)NO)CC3)c1 (stereo not shown) [Compound I-46, 7-{3-[2-(dimethylamino)ethoxy]phenoxy}-N-hydroxy-1,2,3,4-tetrahydronaphthalene-2-carboxamide] |
| 60 | O=C(NO)C1CCc2ccc(-c3ccncc3)cc2C1 (stereo not shown) [Compound I-17, N-hydroxy-7-pyridin-4-yl-1,2,3,4-tetrahydronaphthalene-2-carboxamide] |
| 80 | O=C(NO)C1CCc2cc(-c3ccncc3)ccc2C1 (stereo not shown) [Compound I-66, N-hydroxy-6-pyridin-4-yl-1,2,3,4-tetrahydronaphthalene-2-carboxamide] |
| 65 | O=C(NO)C1CCc2ccc(NS(=O)(=O)c3ccccc3)cc2C1 (stereo not shown) [Compound I-28, N-hydroxy-7-[(phenylsulfonyl)amino]-1,2,3,4-tetrahydronaphthalene-2-carboxamide] |
| 85 | O=C1CCc2c(Oc3ccc4c(c3)C[C@@H](C(=O)NO)CC4)ccnc2N1 [Compound I-4, (2S)—N-hydroxy-7-[(7-oxo-5,6,7,8-tetrahydro-1,8-naphthyridin-4-yl)oxy]-1,2,3,4-tetrahydronaphthalene-2-carboxamide] |
| 82 | CC(C)(C)OC(=O)Nc1cccc(-c2ccc3c(c2)CC(C(=O)NO)CC3)c1 (stereo not shown) [Compound I-62, tert-butyl (3-{7-[(hydroxyamino)carbonyl]-5,6,7,8-tetrahydronaphthalen-2-yl}phenyl)carbamate] |
| 70 | O=C(NO)C1CCc2ccc(Nc3ccccc3)cc2C1 (stereo not shown) [Compound I-23, 7-anilino-N-hydroxy-1,2,3,4-tetrahydronaphthalene-2-carboxamide] |
| 81 | O=C(NO)C1CCc2ccc(-c3ccc(N4CCCC4)nc3)cc2C1 (stereo not shown) [Compound I-97, N-hydroxy-7-(6-pyrrolidin-1-ylpyridin-3-yl)-1,2,3,4-tetrahydronaphthalene-2-carboxamide] |
| 90 | O=C(NO)C1CCc2ccc(-c3cccc(NC(=O)C4CC4)c3)cc2C1 (stereo not shown) [Compound I-64, 7-{3-[(cyclopropylcarbonyl)amino]phenyl}-N-hydroxy-1,2,3,4-tetrahydronaphthalene-2-carboxamide] |
| 86 | O=C(Nc1ccccc1)Nc1ccc2c(c1)CC(C(=O)NO)CC2 (stereo not shown) [Compound I-30, 7-[(Anilinocarbonyl)amino]-N-hydroxy-1,2,3,4-tetrahydronaphthalene-2-carboxamide] |
| 55 | CN(C)Cc1cc(C(=O)Nc2ccc3c(c2)CC(C(=O)NO)CC3)cc(C(F)(F)F)c1 (stereo not shown) [Compound I-37, 7-{[3-[(dimethylamino)methyl]-5-(trifluoromethyl)benzoyl]amino}-N-hydroxy-1,2,3,4-tetrahydronaphthalene-2-carboxamide] |
| 37 | O=C(NO)C1CCc2cc(Nc3ccccc3Cl)ccc2C1 (stereo not shown) [Compound I-83, 6-[(2-chlorophenyl)amino]-N-hydroxy-1,2,3,4-tetrahydronaphthalene-2-carboxamide] |
| 62 | N#Cc1ccc2c(c1)CC(C(=O)NO)CC2 (stereo not shown) [Compound I-42, 7-cyano-N-hydroxy-1,2,3,4-tetrahydronaphthalene-2-carboxamide] |
| 57 | O=C(NO)C1CCc2ccc(Nc3ccncc3)cc2C1 (stereo not shown) [Compound I-33, N-hydroxy-7-(pyridin-4-ylamino)-1,2,3,4-tetrahydronaphthalene-2-carboxamide] |
| 68 | O=C(NO)C1CCc2cc(-c3ccc(Cl)cc3)ccc2C1 (stereo not shown) [Compound I-65, 6-(4-chlorophenyl)-N-hydroxy-1,2,3,4-tetrahydronaphthalene-2-carboxamide] |
| 62 | CCCc1ccc(-c2ccc3c(c2)CC(C(=O)NO)CC3)cc1 (stereo not shown) [Compound I-94, N-hydroxy-7-(4-propylphenyl)-1,2,3,4-tetrahydronaphthalene-2-carboxamide] |
| 27 | O=C(NO)C1CCc2cc(Oc3ccccc3)ccc2C1 (stereo not shown) [Compound I-25, N-hydroxy-6-phenoxy-1,2,3,4-tetrahydronaphthalene-2-carboxamide] |
| 75 | CN(C)C(=O)c1ccc(-c2ccc3c(c2)CC(C(=O)NO)CC3)cc1F (stereo not shown) [Compound I-108, 7-{4-[(dimethylamino)carbonyl]-3-fluorophenyl}-N-hydroxy-1,2,3,4-tetrahydronaphthalene-2-carboxamide] |
| 82 | CC(C)Oc1ncccc1-c1ccc2c(c1)CC(C(=O)NO)CC2 (stereo not shown) [Compound I-116, N-hydroxy-7-(2-isopropoxypyridin-3-yl)-1,2,3,4-tetrahydronaphthalene-2-carboxamide] |
| 81 | COc1cccc(-c2ccc3c(c2)CC(C(=O)NO)CC3)c1 (stereo not shown) [Compound I-67, N-hydroxy-7-(3-methoxyphenyl)-1,2,3,4-tetrahydronaphthalene-2-carboxamide] |
| 83 | O=C(NO)C1CCc2ccc(-c3cccc([N+](=O)[O-])c3)cc2C1 (stereo not shown) [Compound I-106, N-hydroxy-7-(3-nitrophenyl)-1,2,3,4-tetrahydronaphthalene-2-carboxamide] |
| 77 | O=C(NO)C1CCc2ccc(-c3ccc4[nH]ccc4c3)cc2C1 (stereo not shown) [Compound I-75, N-hydroxy-7-(1H-indol-5-yl)-1,2,3,4-tetrahydronaphthalene-2-carboxamide] |
| 87 | CN(C)CCOc1cccc(-c2ccc3c(c2)CC(C(=O)NO)CC3)c1 (stereo not shown) [Compound I-58, 7-{3-[2-(dimethylamino)ethoxy]phenyl}-N-hydroxy-1,2,3,4-tetrahydronaphthalene-2-carboxamide] |

| SMILES | inhibition at 0.412 µM [%] |
| --- | --- |
| CNC(=O)Nc1cccc(Oc2ccc3c(c2)CC(C(=O)NO)CC3)c1 (stereo not shown) [Compound I-57, N-hydroxy-7-(3-{[(methylamino)carbonyl]amino}phenoxy)-1,2,3,4-tetrahydronaphthalene-2-carboxamide] | 73 |
